For this assay, the target named is T1, CYP17 (human testicular microsome) (Homo sapiens, UniProt P05093).
T1 construct: using microsomal fraction from human testis (Celsis Cat #S00110) as the enzyme source; tissue Celsis S00110; host or cells: human testis microsomal fraction
T1 sequence (P05093 1-508): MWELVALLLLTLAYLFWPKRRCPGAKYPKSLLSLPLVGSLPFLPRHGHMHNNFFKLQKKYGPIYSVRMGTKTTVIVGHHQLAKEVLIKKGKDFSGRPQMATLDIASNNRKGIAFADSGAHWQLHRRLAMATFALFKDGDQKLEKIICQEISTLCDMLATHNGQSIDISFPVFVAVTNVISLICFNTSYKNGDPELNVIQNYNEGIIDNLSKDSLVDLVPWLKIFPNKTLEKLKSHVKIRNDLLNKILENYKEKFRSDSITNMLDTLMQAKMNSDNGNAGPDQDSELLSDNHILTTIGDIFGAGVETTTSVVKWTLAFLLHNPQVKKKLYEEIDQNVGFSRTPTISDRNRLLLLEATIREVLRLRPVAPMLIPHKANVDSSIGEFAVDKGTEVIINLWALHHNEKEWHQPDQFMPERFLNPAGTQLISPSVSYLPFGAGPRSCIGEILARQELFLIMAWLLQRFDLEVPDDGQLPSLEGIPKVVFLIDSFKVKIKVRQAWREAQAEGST
The assay is described as follows: CYP17 enzymatic assay (% inhibition at 1 nM) (Biological Example 12). It counts as biochemical.

Setting [1] is: compound at 1 nM, read-out: CYP17 enzymatic assay % inhibition at 1 nM (Biological Example No. 12).
Where [2] appears, read: compound at 1 nM, read-out: Biological Example No. 12: CYP17 enzymatic assay % inhibition at 1 nM.
Where [3] appears, read: test compound at 1 nM, read-out: CYP17 enzymatic assay percent inhibition at 1 nM (Biological Example No. 12).

Read-outs that look alike come from different tables or passages of the source. Some results are limits rather than exact numbers.

As usually defined, the inhibition is the drop in the measured response relative to a control, in per cent.

On to `CCNC(=S)N[C@@H]1CC[C@@]2(C)C(=CC[C@@H]3[C@@H]2CC[C@]2(C)C(c4cccnc4)=CC[C@@H]32)C1` [Compound 233, 1-((3R,10R,13S)-10,13-dimethyl-17-(pyridin-3-yl)-2,3,4,7,8,9,10,11,12,13,14,15-dodecahydro-1H-cyclopenta[a]phenanthren-3-yl)-3-ethylthiourea], for which the inhibition at 0.001 µM under setting [1] lay within 10 to 50%. In the case of `CCNC(=O)NC1CC[C@@]2(C)C(=CC[C@@H]3[C@@H]2CC[C@]2(C)C(c4cncc(OC)c4)=CC[C@@H]32)C1` (stereo partly drawn) [Compound 234, 1-ethyl-3-((10R,13S)-17-(5-methoxypyridin-3-yl)-10,13-dimethyl-2,3,4,7,8,9,10,11,12,13,14,15-dodecahydro-1H-cyclopenta[a]phenanthren-3-yl)urea], the inhibition at 0.001 µM under setting [1] is 10 to 50%. Regarding `C[C@]12CCC(NC(=O)c3nccs3)CC1=CCC1C2CC[C@]2(C)C(n3ccnc3)=CCC12` (stereo partly drawn) [Compound 241, N-((10R,13S)-17-(1H-imidazol-1-yl)-10,13-dimethyl-2,3,4,7,8,9,10,11,12,13,14,15-dodecahydro-1H-cyclopenta[a]phenanthren-3-yl)thiazole-2-carboxamide], the inhibition at 0.001 µM under setting [1] was in the range of 10 to 50%.

Consider `CCNC(=O)N[C@@H]1CC[C@@]2(C)C(CC[C@@H]3[C@@H]2CC[C@]2(C)C(n4ccnc4)=CC[C@@H]32)C1` (stereo partly drawn) [Compound 247, 1-((3R,10S,13S)-17-(1H-imidazol-1-yl)-10,13-dimethyl-2,3,4,5,6,7,8,9,10,11,12,13,14,15-tetradecahydro-1H-cyclopenta[a]phenanthren-3-yl)-3-ethylurea], for which the inhibition at 0.001 µM under setting [1] was more than 50%.

For `C[C@]12CC[C@H]3[C@@H](CC(=O)C45CC4CC[C@]35C)C1=CC=C2c1cccnc1` (stereo partly drawn) [Compound 250, (3aR,5aS)-3a,5a-dimethyl-6-(pyridin-3-yl)-1a,2,3,3a,3b,4,5,5a,8b,9-decahydrocyclopenta[a]cyclopropa[2,3]cyclopenta[1,2-f]naphthalen-10(1H)-one], the inhibition at 0.001 µM under setting [1] was more than 50%. `C[C@]12CC[C@H]3[C@@H](CC(Nc4nccs4)C45CC4CC[C@]35C)[C@@H]1CC=C2c1cccnc1` (stereo partly drawn) [Compound 251, N-((3aR,5aS)-3a,5a-dimethyl-6-(pyridin-3-yl)-1,1a,2,3,3a,3b,4,5,5a,8,8a,8b,9,10-tetradecahydrocyclopenta[a]cyclopropa[2,3]cyclopenta[1,2-f]naphthalen-10-yl)thiazol-2-amine]: the inhibition at 0.001 µM under setting [1] lay in the range of 10 to 50%.

In the case of `C[C@]12CC[C@@](O)(C3CC3)CC1CC[C@@H]1[C@@H]2CC[C@]2(C)C(c3cccnc3)=CC[C@@H]12` (stereo partly drawn) [Compound 252, (3S,10S,13S)-3-cyclopropyl-10,13-dimethyl-17-(pyridin-3-yl)-2,3,4,5,6,7,8,9,10,11,12,13,14,15-tetradecahydro-1H-cyclopenta[a]phenanthren-3-ol], the inhibition at 0.001 µM under setting [1] is 10 to 50%. Take `C[C@@]1(O)CC[C@@]2(C)C(CCC3C2CC[C@]2(C)C(c4cccnc4)=CCC32)C1` (stereo partly drawn) [Compound 253, (3R,10S,13S)-3,10,13-trimethyl-17-(pyridin-3-yl)-2,3,4,5,6,7,8,9,10,11,12,13,14,15-tetradecahydro-1H-cyclopenta[a]phenanthren-3-ol]: the inhibition at 0.001 µM under setting [1] is less than 10%. The same measure, in the same setting: in the case of `C#C[C@@]1(O)CC[C@@]2(C)C(CCC3C2CC[C@]2(C)C(c4cccnc4)=CCC32)C1` (stereo partly drawn) [Compound 257, (3R,10S,13S)-3-ethynyl-10,13-dimethyl-17-(pyridin-3-yl)-2,3,4,5,6,7,8,9,10,11,12,13,14,15-tetradecahydro-1H-cyclopenta[a]phenanthren-3-ol] it was 10 to 50%.

For the molecule `C[C@@]1(O)CC[C@@]2(C)C(CCC3C4=CC=C(c5cccnc5)[C@@]4(C)CCC32)C1` (stereo partly drawn) [Compound 260, (3R,10S,13S)-3,10,13-trimethyl-17-(pyridin-3-yl)-2,3,4,5,6,7,8,9,10,11,12,13-dodecahydro-1H-cyclopenta[a]phenanthren-3-ol], the inhibition at 0.001 µM under setting [1] was less than 10%. Consider `C[C@]1(O)CC[C@@]2(C)C(CCC3C2CC[C@]2(C)C(c4cncc(Cl)c4)=CCC32)C1` (stereo partly drawn) [Compound 265, (3S,10S,13S)-17-(5-chloropyridin-3-yl)-3,10,13-trimethyl-2,3,4,5,6,7,8,9,10,11,12,13,14,15-tetradecahydro-1H-cyclopenta[a]phenanthren-3-ol], for which, under setting [2], the inhibition at 0.001 µM is less than 10%. On to `C[C@@]1(O)CC[C@@]2(C)C(CCC3C2CC[C@]2(C)C(c4cncc(Cl)c4)=CCC32)C1` (stereo partly drawn) [Compound 266, (3R,10S,13S)-17-(5-chloropyridin-3-yl)-3,10,13-trimethyl-2,3,4,5,6,7,8,9,10,11,12,13,14,15-tetradecahydro-1H-cyclopenta[a]phenanthren-3-ol], for which, under setting [2], the inhibition at 0.001 µM fell in the range of 10 to 50%. With `C[C@@]1(O)CC[C@@]2(C)C(=CCC3C2CC[C@]2(C)C(c4cccnc4)=CCC32)C1` (stereo partly drawn) [Compound 267, (3R,10R,13S)-3,10,13-trimethyl-17-(pyridin-3-yl)-2,3,4,7,8,9,10,11,12,13,14,15-dodecahydro-1H-cyclopenta[a]phenanthren-3-ol], under setting [3], the inhibition at 0.001 µM was more than 50%.

With `C[C@]1(O)CC[C@@]2(C)C(=CCC3C2CC[C@]2(C)C(c4cccnc4)=CCC32)C1` (stereo partly drawn) [Compound 268, (3S,10R,13S)-3,10,13-trimethyl-17-(pyridin-3-yl)-2,3,4,7,8,9,10,11,12,13,14,15-dodecahydro-1H-cyclopenta[a]phenanthren-3-ol], the inhibition at 0.001 µM under setting [3] was more than 50%. Turning to `C[C@]1(O)CC[C@@]2(C)C(=CCC3C2CC[C@]2(C)C(c4cncc(F)c4)=CCC32)C1` (stereo partly drawn) [Compound 270, (3S,10R,13S)-17-(5-fluoropyridin-3-yl)-3,10,13-trimethyl-2,3,4,7,8,9,10,11,12,13,14,15-dodecahydro-1H-cyclopenta[a]phenanthren-3-ol], the inhibition at 0.001 µM under setting [3] lay within 10 to 50%. In the case of `C[C@]12CC[C@H]3[C@@H](CC=C4C[C@@H](O)CC[C@@]43C)C1=CC=C2c1cncc(Cl)c1` [Compound 273, (3S,10R,13S)-17-(5-chloropyridin-3-yl)-10,13-dimethyl-2,3,4,7,8,9,10,11,12,13-decahydro-1H-cyclopenta[a]phenanthren-3-ol], the inhibition at 0.001 µM under setting [2] was 10 to 50%. Take `C[C@]12CC[C@H](O)CC1=CCC1C2CC[C@]2(C)C(c3cncc(C#N)c3)=CCC12` (stereo partly drawn) [Compound 275, 5-((3S,10R,13S)-3-hydroxy-10,13-dimethyl-2,3,4,7,8,9,10,11,12,13,14,15-dodecahydro-1H-cyclopenta[a]phenanthren-17-yl)nicotinonitrile]: the inhibition at 0.001 µM under setting [2] was 10 to 50%. On to `Cc1cnc(F)c(C2=CCC3C4CC=C5C[C@@H](O)CC[C@]5(C)C4CC[C@]23C)c1` (stereo partly drawn) [Compound 277, (3S,10R,13S)-17-(2-fluoro-5-methylpyridin-3-yl)-10,13-dimethyl-2,3,4,7,8,9,10,11,12,13,14,15-dodecahydro-1H-cyclopenta[a]phenanthren-3-ol], for which, under setting [2], the inhibition at 0.001 µM lay within 10 to 50%. On the same count and under the same terms, the value for `Cc1cc(C2=CCC3C4CC=C5C[C@@H](O)CC[C@]5(C)C4CC[C@]23C)cnc1F` (stereo partly drawn) [Compound 278, (3S,10R,13S)-17-(6-fluoro-5-methylpyridin-3-yl)-10,13-dimethyl-2,3,4,7,8,9,10,11,12,13,14,15-dodecahydro-1H-cyclopenta[a]phenanthren-3-ol] was less than 10%.

Source of the values: patent US20130252930A1 (BIOMARIN PHARMACEUTICAL INC., priority 2010, published 2013).
